Measured values published in patent US7112586B2, “Substituted diamine derivatives useful as motilin antagonists” (Ortho-McNeil Pharmaceutical, Inc., priority 2000, dated 2006).

Biological target: T1, Motilin Receptor (Oryctolagus cuniculus, UniProt G1T803)
T1 construct: The muscle tissue was homogenized in 10 volumes of 50 mM Tris-Cl; from tissue; host or cells: rabbit colon smooth muscle, crude membrane homogenate
Experiment: Motilin receptor binding, rabbit colon membranes, 125I porcine motilin
Parameters: Rabbit Colon % Inh / inhibition / % Inh (Rabbit colon): dose or concentration left out as unconfirmed
Details: rabbit colon membranes; for inhibition: read-out: Rabbit Colon % Inh; for IC50: read-out: Rabbit Colon IC50
Procedure: Rabbit colon was removed, dissected free from the mucosa and serosa, and diced into small pieces. The muscle tissue was homogenized in 10 volumes of 50 mM Tris-Cl, 10 mM MgCl2, 0.1 mg/ml bacitracin, and 0.25 mM Peflabloc, at pH 7.5 in a Polytron (29000 rpm, 4×15 seconds). The homogenate was centrifuged at 1000×g for 15 minutes and the supernatant discarded. The pellet was washed twice before being suspended in homogenizing buffer. The crude homogenate was resuspended through a 23 gauge needle before storing at −80° C. […] After 60 minutes at 30° C., the samples were cooled in ice, centrifuged in the cold at 13000×g for 1 minute. The pellet was washed twice with 1 ml of cold saline, the supernatant was aspirated, and the pellet at the bottom of the tube counted in a gamma counter. Non-specific binding was determined by the inclusion of 1 mM of unlabeled motilin. IC50 values were determined from Kaleidograph curves.

T1 sequence (G1T803 1-400): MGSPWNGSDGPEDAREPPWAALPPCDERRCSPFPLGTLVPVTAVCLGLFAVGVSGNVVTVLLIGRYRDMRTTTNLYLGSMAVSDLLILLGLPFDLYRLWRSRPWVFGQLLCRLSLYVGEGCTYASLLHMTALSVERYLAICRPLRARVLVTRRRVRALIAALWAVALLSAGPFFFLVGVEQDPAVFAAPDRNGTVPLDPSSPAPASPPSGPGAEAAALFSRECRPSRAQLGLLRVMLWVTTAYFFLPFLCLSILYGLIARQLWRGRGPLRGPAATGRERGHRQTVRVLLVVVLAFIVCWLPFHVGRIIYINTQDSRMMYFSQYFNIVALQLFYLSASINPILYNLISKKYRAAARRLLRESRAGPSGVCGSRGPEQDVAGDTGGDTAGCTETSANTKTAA

Row | Structure (SMILES) | Rabbit Colon % Inh [%] | inhibition [%] | IC50 [nM]
1 | O=C(c1ccc(F)cc1)N(CC1CCCC(N(Cc2ccccc2)C(=O)CCc2ccccc2)C1)c1cccc(OCCN2CCOCC2)c1 (centres unmarked) [compound 115] | 26 | – | –
2 | CC(C)(C)C(=O)N(Cc1ccccc1)C1CCCC(CN(C(=O)c2ccc(F)cc2)c2cccc(OCCN3CCOCC3)c2)C1 (centres unmarked) [compound 116] | – | 61 | 772
3 | COc1cccc(C(=O)N(Cc2ccccc2)C2CCCC(CN(C(=O)c3ccc(F)cc3)c3cccc(OCCN4CCOCC4)c3)C2)c1 (centres unmarked) [compound 117] | 17 | – | –
4 | O=C(c1ccc(F)cc1)N(CC1CCCC(N(Cc2ccccc2)C(=O)c2ccc(-c3ccccc3)cc2)C1)c1cccc(OCCN2CCOCC2)c1 (centres unmarked) [compound 118] | 58 | – | –
5 | O=C(c1ccc(F)cc1)N(CC1CCCC(N(Cc2ccccc2)C(=O)c2cc(C(F)(F)F)cc(C(F)(F)F)c2)C1)c1cccc(OCCN2CCOCC2)c1 (centres unmarked) [compound 119] | 22 | – | –
6 | O=C(c1ccc(F)cc1)N(CC1CCCC(N(Cc2ccccc2)C(=O)C(F)(F)F)C1)c1cccc(OCCN2CCOCC2)c1 (centres unmarked) [compound 120] | – | 69 | 954
7 | O=C(c1ccc(F)cc1)N(CC1CCCC(N(Cc2ccccc2)C(=O)C(Cl)(Cl)Cl)C1)c1cccc(OCCN2CCOCC2)c1 (centres unmarked) [compound 122] | – | 64 | 840
8 | O=C(c1ccc(F)cc1)N(CC1CCCC(N(Cc2ccccc2)S(=O)(=O)c2ccc3ccccc3c2)C1)c1cccc(OCCN2CCOCC2)c1 (centres unmarked) [compound 123] | 8 | – | –
9 | O=C(c1ccc(F)cc1)N(CC1CCCC(N(Cc2ccccc2)C(=O)c2ccco2)C1)c1cccc(OCCN2CCOCC2)c1 (centres unmarked) [compound 124] | – | 70 | 904
10 | O=C(c1ccc(F)cc1)N(CC1CCCC(N(Cc2ccccc2)C(=O)Nc2ccccc2)C1)c1cccc(OCCN2CCOCC2)c1 (centres unmarked) [compound 125] | 25 | – | –
11 | O=C([C@H](Cc1ccccc1)NC(=O)C(Cl)(Cl)Cl)N(Cc1ccc(F)cc1)c1cccc(OCCN2CCOCC2)c1 [compound 131] | 19 | – | –
12 | O=C(N[C@@H](Cc1ccccc1)C(=O)N(Cc1ccc(F)cc1)c1cccc(OCCN2CCOCC2)c1)c1ccc(-c2ccccc2)cc1 [compound 132] | 10 | – | –
13 | O=C(N[C@@H](Cc1ccccc1)C(=O)N(Cc1ccc(F)cc1)c1cccc(OCCN2CCOCC2)c1)C(c1ccccc1)c1ccccc1 [compound 133] | 6 | – | –
14 | COc1cccc(CC(=O)N[C@@H](Cc2ccccc2)C(=O)N(Cc2ccc(F)cc2)c2cccc(OCCN3CCOCC3)c2)c1 [compound 134] | 0 | – | –
15 | O=C([C@H](Cc1ccccc1)NS(=O)(=O)c1ccc(-c2ccccc2)cc1)N(Cc1ccc(F)cc1)c1cccc(OCCN2CCOCC2)c1 [compound 135] | 8 | – | –
16 | O=C(NC(c1ccccc1)c1ccccc1)c1cccc(CN(C(=O)c2ccc(F)cc2)c2cccc(OCCN3CCOCC3)c2)c1 [compound 137] | 30 | – | –

Row | Structure (SMILES) | Rabbit Colon % Inh [%] | inhibition [%] | IC50 [nM]
17 | O=C(NCCc1ccccc1)c1cccc(CN(C(=O)c2ccc(F)cc2)c2cccc(OCCN3CCOCC3)c2)c1 [compound 138] | – | 36 | –
18 | CC(C)(C)CN(Cc1ccccc1)C(=O)c1cccc(CN(C(=O)c2ccc(F)cc2)c2cccc(OCCN3CCOCC3)c2)c1 [compound 140] | 45 | – | –
19 | CC(C)(C)CN(Cc1cccc(Cl)c1)C(=O)c1cccc(CN(C(=O)c2ccc(F)cc2)c2cccc(OCCN3CCOCC3)c2)c1 [compound 141] | 21 | – | –
20 | O=C(c1ccc(F)cc1)N(Cc1cccc(C(=O)N2CCc3ccccc3C2c2ccccc2)c1)c1cccc(OCCN2CCOCC2)c1 (centres unmarked) [compound 142] | 17 | – | –
21 | O=C(CCCN(C(=O)c1ccc(F)cc1)c1cccc(OCCN2CCOCC2)c1)NC(c1ccccc1)c1ccccc1 [compound 143] | 0 | – | –
22 | CC(C)(C)CN(Cc1ccccc1)C(=O)CCCN(C(=O)c1ccc(F)cc1)c1cccc(OCCN2CCOCC2)c1 [compound 145] | 35 | – | –
23 | COc1ccc(CCN(Cc2cccc(Cl)c2)C(=O)CCCN(C(=O)c2ccc(F)cc2)c2cccc(OCCN3CCOCC3)c2)cc1 [compound 147] | – | 61 | 490
24 | O=C(c1ccc(F)cc1)N(CCCC(=O)N1CCc2ccccc2C1c1ccccc1)c1cccc(OCCN2CCOCC2)c1 (centres unmarked) [compound 148] | 19 | – | –
25 | O=C(CCCN(C(=O)c1ccc(F)cc1)c1cccc(OCCN2CCOCC2)c1)N1CCN(C(c2ccccc2)c2ccc(Cl)cc2)CC1 (centres unmarked) [compound 149] | 27 | – | –
26 | O=C(Nc1cccc(OCCN2CCOCC2)c1)C1=C(C(=O)N(CCc2ccccc2)Cc2ccccc2)CCC1 [compound 156] | 18 | – | –
27 | O=C(c1ccc(F)cc1)N(CC1CCC(N(Cc2ccccn2)C(=O)C(Cl)(Cl)Cl)CC1)c1cccc(OCCN2CCOCC2)c1 (centres unmarked) [compound 174] | 0 | – | –
28 | O=C(Nc1ccccc1)N(CC1CCC(N(Cc2ccccc2)C(=O)Cc2ccccc2)CC1)c1cccc(OCCN2CCOCC2)c1 (centres unmarked) [compound 183] | 2 | – | –
29 | COc1cccc(C(=O)N(Cc2cccc(Cl)c2)C2CCC(CN(C(=O)Nc3ccccc3)c3cccc(OCCN4CCOCC4)c3)CC2)c1 (centres unmarked) [compound 184] | 6 | – | –
30 | O=C(Nc1ccccc1)N(CC1CCC(N(Cc2cccc(Cl)c2)C(=O)c2ccco2)CC1)c1cccc(OCCN2CCOCC2)c1 (centres unmarked) [compound 185] | 0 | – | –
31 | COc1cccc(C(=O)N(Cc2cccc([N+](=O)[O-])c2)C2CCC(CN(C(=O)Nc3ccccc3)c3cccc(OCCN4CCOCC4)c3)CC2)c1 (centres unmarked) [compound 186] | 0 | – | –
32 | CN(C)CCOc1ccc(N(Cc2ccc(F)cc2)C(=O)CCCC(=O)N(CCc2ccccc2)Cc2ccccc2)cc1 [compound 194] | 23 | – | –

Continued, values first:

Row | Rabbit Colon % Inh [%] | inhibition [%] | IC50 [nM] | Structure (SMILES)
33 | – | 75 | 230 | O=C(CCC(=O)N(Cc1ccc(F)cc1)c1cccc(OCCN2CCOCC2)c1)N(CCc1ccccc1)Cc1ccccc1 [compound 128]
34 | – | 90 | 58 | O=C(CCCC(=O)N(Cc1ccc(F)cc1)c1cccc(OCCN2CCOCC2)c1)N(CCc1ccccc1)Cc1ccccc1 [compound 129]
35 | 8 | – | – | O=C(CCc1ccccc1)N[C@@H](Cc1ccccc1)C(=O)N(Cc1ccc(F)cc1)c1cccc(OCCN2CCOCC2)c1 [compound 130]
36 | 43 | – | – | O=C(c1cccc(CN(C(=O)c2ccc(F)cc2)c2cccc(OCCN3CCOCC3)c2)c1)N(CCc1ccccc1)Cc1ccccc1 [compound 136]
37 | 54 | – | – | O=C(CCCN(C(=O)c1ccc(F)cc1)c1cccc(OCCN2CCOCC2)c1)N(CCCc1ccccc1)Cc1ccccc1 [compound 144]
38 | 32 | – | – | COc1ccc(CCN(Cc2ccccc2)C(=O)CCCN(C(=O)c2ccc(F)cc2)c2cccc(OCCN3CCOCC3)c2)cc1 [compound 146]
39 | 1 | – | – | O=C([C@H](Cc1ccccc1)N(Cc1ccccc1)C(=O)C(Cl)(Cl)Cl)N(Cc1ccc(F)cc1)c1cccc(OCCN2CCOCC2)c1 [compound 151]
40 | 0 | – | – | O=C([C@H](Cc1ccccc1)N(Cc1ccccc1)C(=O)CCc1ccccc1)N(Cc1ccc(F)cc1)c1cccc(OCCN2CCOCC2)c1 [compound 152]
41 | 34 | – | – | O=C(C1CC=CCC1C(=O)N(Cc1ccc(F)cc1)c1cccc(OCCN2CCOCC2)c1)N(CCc1ccccc1)Cc1ccccc1 (centres unmarked) [compound 155]
42 | – | 83 | 275 | O=C(CCCC(=O)N(Cc1ccc(F)cc1)c1cccc(OCCN2CCOCC2)c1)N(CCCc1ccccc1)Cc1ccccc1 [compound 159]
43 | – | 63 | 550 | O=C(CCC(=O)N(Cc1ccccc1F)c1cccc(OCCN2CCOCC2)c1)N(CCc1ccccc1)Cc1ccccc1 [compound 165]
44 | 23 | – | – | COc1ccc(CN(C(=O)CCC(=O)N(CCc2ccccc2)Cc2ccccc2)c2cccc(OCCN3CCOCC3)c2)cc1 [compound 166]
45 | 42 | – | – | O=C(CCC(=O)N(Cc1ccc(C(F)(F)F)cc1)c1cccc(OCCN2CCOCC2)c1)N(CCc1ccccc1)Cc1ccccc1 [compound 167]
46 | 36 | – | – | O=C(CCC(=O)N(Cc1ccc(Cl)cc1)c1cccc(OCCN2CCOCC2)c1)N(CCc1ccccc1)Cc1ccccc1 [compound 168]
47 | 40 | – | – | O=C(CCCC(=O)N(Cc1ccc(C(F)(F)F)cc1)c1cccc(OCCN2CCOCC2)c1)N(CCc1ccccc1)Cc1ccccc1 [compound 172]
48 | 0 | – | – | O=C(CCCC(=O)N(Cc1ccc(F)cc1)c1cccc(O)c1)N(CCc1ccccc1)Cc1ccccc1 [compound 175]
49 | 32 | – | – | O=C1CCCN1CCOc1cccc(N(Cc2ccc(F)cc2)C(=O)CCCC(=O)N(CCc2ccccc2)Cc2ccccc2)c1 [compound 176]
50 | – | 100 | 229 | CN(C)CCCOc1cccc(N(Cc2ccc(F)cc2)C(=O)CCCC(=O)N(CCc2ccccc2)Cc2ccccc2)c1 [compound 187]
51 | – | 70 | 300 | CC(CC(=O)N(CCc1ccccc1)Cc1ccccc1)CC(=O)N(Cc1ccc(F)cc1)c1cccc(OCCN2CCOCC2)c1 (centres unmarked) [compound 189]
52 | 27 | – | – | O=C(CCCC(=O)N(Cc1ccc(F)cc1)c1ccc(OCCN2CCCC2)cc1)N(CCc1ccccc1)Cc1ccccc1 [compound 191]
53 | 15 | – | – | O=C(CCCC(=O)N(Cc1ccc(F)cc1)c1ccc(OCCN2CCOCC2)cc1)N(CCc1ccccc1)Cc1ccccc1 [compound 192]
54 | 7 | – | – | O=C(CCCC(=O)N(Cc1ccc(F)cc1)c1ccc(OCCCN2CCCCC2)cc1)N(CCc1ccccc1)Cc1ccccc1 [compound 193]
